Holding throughout (format): cell-based
One assay concerns Thermus scotoductus SE-1. The assay can be described thus: Agar diffusion assay with cell free supernatant of producing strains. Conditions: zone diameter relative to Nisin A wild type (100). As for the experimental part:
(§1) Agar diffusion assays were carried out in triplicate using nisin producing and indicator (T. thermophilus HB27 and T. scotoductus Se-1) strains. Both the producer and indicator strains were cultured as per conditions described above. One ml of overnight culture of indicators were added to 50ml of molten Castenholz agar, briefly swirled and poured. Wells were made using sterile glass pipette. To generate cell free supernatant from nisin producing strains, 10 mls of overnight cultures of the strains were centrifuged at 950g for 20 mins. The cell free supernatant was transferred to a sterile tube. 50 µl of cell free supernatant was added to wells described above. Plates were incubated at 55°C for 3 days and the zone of clearance measured.
(§2) The cell free supernatant of nisin A and nisin variant producing L. lactis was used to determine the bioactivity of these lantibiotics against T. thermophilus HB27 and T. scotoductus SE-1 using agar diffusion assays, with the zone of clearance representing the bioactivity of the producing strain (i.e., representing a combination of the amount of the peptide produced and the specific activity of that peptide). […] Among the variants tested were those with altered N-terminal domains. The N-terminal domain of nisin is important for binding with the pyrophosphate moiety of lipid II to mediate pore formation in the cell membrane. Lysine (K) at position 12, which serves as a small flexible region between ring B and C, and is one of among the 5 positively charged residues (K12, K22, K34, H27, […]) of nisin A that contributes to its cationic nature and its attraction to the cell envelope.
On the technique in general: A growth-free zone around the sample is the usual read-out of agar diffusion tests.

Assay [1] deals with Thermus thermophilus HB27. The assay is described as above. Conditions: zone diameter relative to Nisin A wild type (100). On the procedure:
as §1, §2

Another assay relates to T. aquaticus. The assay can be described thus: Minimum inhibitory concentration assay (Thermus). Conditions: for MIC: pure peptide, mean of triplicate assays. As for the experimental part: (§3) Minimum inhibitory concentration (MIC) determinations for gram negative Thermus strains were carried out in triplicate in round bottom microtitre plates (Corning). 96 well microtitre plates were pre-treated with bovine serum albumin (BSA) prior to addition of the peptides. Briefly, to each well of the microtire plates 200 µl of d.H2O (filtered with 0.2 µm filter) containing 1% (w/w) BSA was added and incubated at 37°C for 30 mins. The wells were washed with 200 µl of IX phosphate buffered saline (PBS) for 2 times after removing 1% BSA d.H2O. 100 µl of growth media, i.e., Castenholz, was added to each well. […] Target strains were grown overnight as per conditions mention above, 0.5 ml of overnight was subcultured in to 10 mls of fresh Castenholz medium and allowed to grow to an OD600 of ∼0.5. 20µl of this subculture was added to 980µl of media, 150µl of this dilution added to 14.85 ml of growth media. 100µl of this dilution added to each well resulting in a final inoculum of ∼10^5 cfu/ml in 200µl. The plates were incubated at 55° C for 3 days and the MIC was determined as the lowest concentration at which no growth was visible.
(§4) The bioactivity of cell-free supernatant can be influenced by altered diffusion rates, solubility, production or specific activity. To determine to what extent, if any, the bioactivity noted above is due to increased specific activity, nisin A (control) and the derivatives were purified and their molecular weights confirmed by MALDI TOF mass spectrometry (Table: 6) (Figure: 4). These peptides were used to perform minimum inhibitory concentration assays against six Thermus strains, i.e., T. thermophilus HB27, T. scotoductus SE-1, T. rehai, T. oshimai, T. aquaticus and T. brockianus.

For the next assay, the system named is T. brockianus. The assay can be described thus: Minimum inhibitory concentration assay (Thermus). Particulars: pure peptide, mean of triplicate assays. On the procedure:
as §3, §4

The next assay concerns T. oshimai. The assay can be described thus: Minimum inhibitory concentration assay (Thermus). Conditions: for MIC: pure peptide, mean of triplicate assays. On the procedure: as §3, §4
A further assay has as its system T. rehai. The assay can be described thus: Minimum inhibitory concentration assay (Thermus). Particulars: for MIC: pure peptide, mean of triplicate assays. On the procedure:
as §3, §4

The subject of another assay is T. scotoductus SE-1. The assay can be described thus: Minimum inhibitory concentration assay (Thermus). Particulars: for MIC: pure peptide, mean of triplicate assays. As for the experimental part:
as §3, §4

In a further assay the test system is T. thermophilus HB27. The assay can be described thus: Minimum inhibitory concentration assay (Thermus). Conditions: for MIC: pure peptide, mean of triplicate assays. As for the experimental part:
as §3, §4

Values after ≈ are worked out from the molar mass of the structure shown. Values joined by “and” are separate entries in the source; they are usually repeats but may differ in a detail not shown here. Identical values can stand only once. Marks after values point to notes of the source that are not given here.

What is called MIC is the least concentration at which growth counts as inhibited. In the case of `C=C(NC(=O)[C@@H](NC(=O)[C@H](Cc1c[nH]cn1)NC(=O)[C@@H](NC(=O)[C@H](CO)NC(=O)[C@@H]1CS[C@@H](C)[C@H]2NC(=O)[C@H](C)NC(=O)[C@H](NC(=O)[C@H](CCCCN)NC(=O)[C@H](CCSC)NC(=O)[C@H](CC(N)=O)NC(=O)[C@@H]3CS[C@@H](C)[C@@H](NC(=O)[C@@H](NC(=O)[C@@H]4CS[C@@H](C)[C@@H](NC(=O)[C@@H]5CSC[C@@H](NC(=O)/C(=C/C)NC(=O)[C@@H](N)[C@@H](C)CC)C(=O)N[C@@H]([C@@H](C)CC)C(=O)NC(=C)C(=O)N[C@@H](CC(C)C)C(=O)N5)C(=O)N5CCC[C@H]5C(=O)NCC(=O)N4)C(C)C)C(=O)NCC(=O)N[C@@H](C)C(=O)N[C@@H](CC(C)C)C(=O)N[C@@H](CCSC)C(=O)NCC(=O)N3)[C@H](C)SC[C@H](NC2=O)C(=O)N[C@@H](Cc2c[nH]cn2)C(=O)N1)[C@@H](C)CC)C(C)C)C(=O)N[C@@H](CCCCN)C(=O)O` [K12V], the “% of wild type” value in the assay on Thermus scotoductus SE-1 is on record as 125* (0.04) %. Moreover, the “% difference” value in assay [1] was 145* (0.004) %. Moreover, the MIC in the assay with T. aquaticus was 0.0156 µM (≈ 0.0519 µg/mL); against T. brockianus, 0.0156 µM (≈ 0.0519 µg/mL); in the assay on T. oshimai, 0.0156 µM (≈ 0.0519 µg/mL); in the assay on T. rehai, 0.0039 µM (≈ 0.013 µg/mL); with T. scotoductus SE-1, 103.9 µg/L and 0.0312 µM; in the assay on T. thermophilus HB27, 12.9 µg/L and 0.0039 µM. Besides, the “fold better activity than nisin A” value with T. rehai, with T. scotoductus SE-1 and in the assay with T. thermophilus HB27 was 2 fold each time.
As to `C=C(NC(=O)[C@@H](NC(=O)[C@H](Cc1c[nH]cn1)NC(=O)[C@@H](NC(=O)[C@H](CO)NC(=O)[C@@H]1CS[C@@H](C)[C@H]2NC(=O)[C@H](C)NC(=O)[C@H](NC(=O)[C@H](CCCCN)NC(=O)[C@H](CCSC)NC(=O)[C@@H]3CCCN3C(=O)[C@@H]3CS[C@@H](C)[C@@H](NC(=O)[C@H](CCCCN)NC(=O)[C@@H]4CS[C@@H](C)[C@@H](NC(=O)[C@@H]5CSC[C@@H](NC(=O)/C(=C/C)NC(=O)[C@@H](N)[C@@H](C)CC)C(=O)N[C@@H]([C@@H](C)CC)C(=O)NC(=C)C(=O)N[C@@H](CC(C)C)C(=O)N5)C(=O)N5CCC[C@H]5C(=O)NCC(=O)N4)C(=O)NCC(=O)N[C@@H](C)C(=O)N[C@@H](CC(C)C)C(=O)N[C@@H](CCSC)C(=O)NCC(=O)N3)[C@H](C)SC[C@H](NC2=O)C(=O)N[C@@H](Cc2c[nH]cn2)C(=O)N1)[C@@H](C)CC)C(C)C)C(=O)N[C@@H](CCCCN)C(=O)O` [N20P], the “% of wild type” value with Thermus scotoductus SE-1 came out at 115%. Further, the “% difference” value in assay [1] came out at 97%. Besides, the MIC against T. aquaticus came to 0.0156 µM (≈ 0.0521 µg/mL); with T. brockianus it was 0.0625 µM (≈ 0.209 µg/mL); in the assay on T. oshimai it was 0.0625 µM (≈ 0.209 µg/mL); in the assay with T. rehai, 0.0625 µM (≈ 0.209 µg/mL); in the assay with T. scotoductus SE-1, 0.125 µM (≈ 0.417 µg/mL); against T. thermophilus HB27 it was 0.0156 µM (≈ 0.0521 µg/mL).
As for `C=C(NC(=O)[C@@H](NC(=O)[C@H](Cc1c[nH]cn1)NC(=O)[C@@H](NC(=O)[C@H](CO)NC(=O)[C@@H]1CS[C@@H](C)[C@H]2NC(=O)[C@H](C)NC(=O)[C@H](NC(=O)[C@H](CCCCN)NC(=O)[C@H](Cc3ccc(O)cc3)NC(=O)[C@H](CC(N)=O)NC(=O)[C@@H]3CS[C@@H](C)[C@@H](NC(=O)[C@H](CCCCN)NC(=O)[C@@H]4CS[C@@H](C)[C@@H](NC(=O)[C@@H]5CSC[C@@H](NC(=O)/C(=C/C)NC(=O)[C@@H](N)[C@@H](C)CC)C(=O)N[C@@H]([C@@H](C)CC)C(=O)NC(=C)C(=O)N[C@@H](CC(C)C)C(=O)N5)C(=O)N5CCC[C@H]5C(=O)NCC(=O)N4)C(=O)NCC(=O)N[C@@H](C)C(=O)N[C@@H](CC(C)C)C(=O)N[C@@H](CCSC)C(=O)NCC(=O)N3)[C@H](C)SC[C@H](NC2=O)C(=O)N[C@@H](Cc2c[nH]cn2)C(=O)N1)[C@@H](C)CC)C(C)C)C(=O)N[C@@H](CCCCN)C(=O)O` [M21Y], the “% of wild type” value with Thermus scotoductus SE-1 is 115%. Further, the “% difference” value in assay [1] was determined as 115%. Also, the MIC is 6.6 µg/L and 0.00195 µM against T. aquaticus; 0.0312 µM (≈ 0.106 µg/mL) with T. brockianus; 13.2 µg/L and 0.0039 µM with T. oshimai; 13.2 µg/L and 0.0039 µM against T. rehai; 0.0625 µM (≈ 0.212 µg/mL) with T. scotoductus SE-1; 13.2 µg/L and 0.0039 µM against T. thermophilus HB27. The “fold better activity than nisin A” value in the assay with T. thermophilus HB27 is listed as “two-fold”.
`C=C(NC(=O)[C@@H](NC(=O)[C@H](Cc1c[nH]cn1)NC(=O)[C@@H](NC(=O)[C@H](CO)NC(=O)[C@@H]1CS[C@@H](C)[C@H]2NC(=O)[C@H](C)NC(=O)[C@H](NC(=O)[C@H](CCCCN)NC(=O)[C@H](CCSC)NC(=O)[C@H](CC(N)=O)NC(=O)[C@@H]3CS[C@@H](C)[C@@H](NC(=O)[C@H](Cc4ccc(O)cc4)NC(=O)[C@@H]4CS[C@@H](C)[C@@H](NC(=O)[C@@H]5CSC[C@@H](NC(=O)/C(=C/C)NC(=O)[C@@H](N)[C@@H](C)CC)C(=O)N[C@@H]([C@@H](C)CC)C(=O)NC(=C)C(=O)N[C@@H](CC(C)C)C(=O)N5)C(=O)N5CCC[C@H]5C(=O)NCC(=O)N4)C(=O)NCC(=O)N[C@@H](C)C(=O)N[C@@H](CC(C)C)C(=O)N[C@@H](CCSC)C(=O)NCC(=O)N3)[C@H](C)SC[C@H](NC2=O)C(=O)N[C@@H](Cc2c[nH]cn2)C(=O)N1)[C@@H](C)CC)C(C)C)C(=O)N[C@@H](CCCCN)C(=O)O` [K12Y]: in the assay on Thermus scotoductus SE-1, the “% of wild type” value is listed as 74%. Besides, in assay [1], the “% difference” value was determined as 94%. For the same compound, the “fold better activity than nisin A” value was determined as 2 fold in the assay with T. aquaticus and 4 fold in the assay on T. rehai. Also, the MIC in the assay on T. aquaticus was 26.4 µg/L and 0.0078 µM; against T. brockianus, 0.0312 µM (≈ 0.106 µg/mL); with T. oshimai, 0.0156 µM (≈ 0.0529 µg/mL); against T. rehai, 6.6 µg/L and 0.00195 µM; against T. scotoductus SE-1 it was 0.625 µM (≈ 2.12 µg/mL); with T. thermophilus HB27, 0.0156 µM (≈ 0.0529 µg/mL).
Regarding `C=C(NC(=O)[C@@H](NC(=O)[C@H](Cc1c[nH]cn1)NC(=O)[C@@H](NC(=O)[C@H](CO)NC(=O)[C@@H]1CS[C@@H](C)[C@H]2NC(=O)[C@H](C)NC(=O)[C@H](NC(=O)[C@H](CCCCN)NC(=O)[C@H](CCSC)NC(=O)[C@H](CC(N)=O)NC(=O)[C@@H]3CS[C@@H](C)[C@@H](NC(=O)[C@H](CCCCN)NC(=O)[C@@H]4CS[C@@H](C)[C@@H](NC(=O)[C@@H]5CSC[C@@H](NC(=O)/C(=C/C)NC(=O)[C@@H](N)[C@@H](C)CC)C(=O)N[C@@H]([C@@H](C)CC)C(=O)NC(=C)C(=O)N[C@@H](CC(C)C)C(=O)N5)C(=O)N5CCC[C@H]5C(=O)NCC(=O)N4)C(=O)NCC(=O)N[C@@H](C)C(=O)N[C@@H](CC(C)C)C(=O)N[C@@H](CCSC)C(=O)NCC(=O)N3)[C@H](C)SC[C@H](NC2=O)C(=O)N[C@@H](CCC(N)=O)C(=O)N1)[C@@H](C)CC)C(C)C)C(=O)N[C@@H](CCCCN)C(=O)O` [H27Q], the “% of wild type” value with Thermus scotoductus SE-1 was determined as 115%. For the same compound, the “% difference” value in assay [1] is listed as 136* (0.031) %. In addition, the “fold better activity than nisin A” value with T. aquaticus came to 14 fold; in the assay with T. oshimai, 8 fold; in the assay with T. rehai, 8 fold; with T. thermophilus HB27, 8 fold. Besides, the MIC is 3.26 µg/L and 0.000975 µM in the assay on T. aquaticus; 0.0156 µM (≈ 0.0522 µg/mL) against T. brockianus; 3.2 µg/L and 0.000975 µM against T. oshimai; 3.2 µg/L and 0.000975 µM against T. rehai; 0.0625 µM (≈ 0.209 µg/mL) in the assay with T. scotoductus SE-1; 3.2 µg/L and 0.000975 µM against T. thermophilus HB27.

The values are drawn from EP3822285A1, “VARIANT NISIN PEPTIDES” (University College Cork-National University of Ireland, Cork, priority 2019, dated 2021).
